Data set [1] in a line: Plasma PK of α-Gal A (JR-051) in WT mice following single IV infusion. Format: in vivo. The note with it: JR-051 1 mg/kg single IV infusion. The method, then:
(§1) Table 1 describes the molar ratios of these compounds:
(§2) Plasma was collected at 0, 15, 30, 45, 60, and 90 min, and 24 hrs post-JR-051. Skin, heart, and kidney were collected 24 hrs post-JR-051. JR-051 plasma levels and tissue uptake were assessed by activity and Western blotting (see Methods section below). A comparison was made between JR-051 administered alone and JR-051 co-formulated with AT1001 groups.
Diluted plasma (1:50) in Lysis Buffer (˜10 μg total protein) was subjected to SDS-PAGE on 4-12% polyacrylamide gels (Invitrogen, Grand Island, N.Y.), transferred to nitrocellulose membranes (Invitrogen), and immunoblotted with rabbit anti-human α-Gal A primary antibody (1:2000 dilution; from Shire Pharmaceuticals, Cambridge, Mass.). Protein bands were detected using peroxidase-conjugated goat anti-rabbit secondary antibody (Jackson Immunosearch Labs, West Grove, Pa.) in combination with enhanced chemiluminescence (Pierce, Rockford, Ill.). Blots were scanned on an Image Station 4000R (Kodak, Rochester, N.Y.).

Data set [2] in a line: Tissue uptake of α-Gal A (JR-051) in WT mice following single IV infusion. The class given is in vivo. As to conditions: data not shown. On the procedure:
as §1, §2
A BCA Protein Assay (Pierce, Rockford, Ill.) was used according to the manufacturer's instructions to determine total protein concentration in tissue lysates. […] For tissue Westerns exactly same procedure was followed as described above for plasma except that 50 μg tissue lysate was used.

A further data set deals with GL-3. Put plainly: GL-3 reduction in skin, heart and kidney of GLA KO mice, repeat IV bolus administration. The class given is in vivo. The note with it: DGJ 0 mg/kg, 4 biweekly IV bolus. The method, then:
Repeat administration of co-formulated product was tested in fourteen-week old GLA KO mice. The mice received four biweekly (once every two weeks) IV bolus injections of 0.5, 1 or 3 mg/kg α-Gal A (JR-051) alone, or co-formulated with 0.3, 1, 3 or 10 mg/kg of DGJ (AT1001). Plasma and tissue levels of α-Gal A, and tissue levels of GL-3 were measured.
Mouse tissues were homogenized in water (1:16.7 tissue:water) using a Fast Prep homogenizer (Pro Scientific, Thorofare, N.J.). Acetone:methanol (50:50) was added at 5× the volume of the homogenate. Samples were vortexed, re-homogenized in the Fast Prep system, and centrifuged at 10600 g for 10 minutes at room temperature. Each supernatant (200 μL of the upper organic portion) was prepared for solid phase extraction by addition of 200 μL dimethyl sulfoxide (DMSO), 50 μL lactosyl ceramide internal standard (from bovine buttermilk; Matreya, LLC, Pleasant Gap, Pa.) at a final concentration of 1.4 μg/mL, and 600 μL of water:methanol (13:87), followed by vortexing. Solid phase extraction was conducted on a pre-conditioned Bond Elut 40 μm, 100 mg C-18 column (Varian Inc, Palo Alto, Calif.) by washing with 67:23:10 methanol:acetone:water and elution with 1 mL of 9:1 acetone:methanol into silanized glass culture tubes containing 200 μL 0.2 mM sodium acetate in DMSO. Total GL-3 levels were determined from 20 μL of each sample extract by liquid chromatography-tandem mass spectroscopy (LC-MS/MS). LC was conducted using an acetone:methanol:acetonitrile (ACN) with sodium acetate binary mobile phase system (mobile phase A: 40:60 methanol:water with 0.1 mM sodium acetate; mobile phase B: 75:15:10 acetone:methanol:ACN with 0.1 mM sodium acetate) with a flow rate of 0.5 mL/min on a C18 column (Aqua 3 μm 100×3.0 mm, 125 A, Phenomenex, Torrance, Calif.). The final GL-3 elution condition was 90% mobile phase B. MS/MS analysis was carried out under positive ion mode (ESI+) and twelve different isoforms of GL-3 [C16:0, C18:0, C20:0, C22:1, C22:0, C23:0, C22:0(2OH), C24:2, C24:1, C24:0, C24:1(2OH), C24:0(2OH)] as well as internal standard were identified in each sample. The following transitions were monitored: m/z 1046.70→m/z 884.7 for C16:0; m/z 1074.8→m/z 912.8 for C18:0; m/z 1102.8→m/z 940.8 for C20:0; m/z 1128.8→m/z 966.8 for C22:1; m/z 1130.9→m/z 968.8 for C22:0; m/z 1144.9→m/z 982.8 for C23:0; m/z 1146.9→m/z 984.8 for C22:0(2OH); m/z 1154.9→m/z 992.8 for C24:2; m/z 1156.9→m/z 994.8 for C24:1; m/z 1158.9→m/z 996.9 for C24:0; m/z 1172.9→m/z 1010.8 for C24:1(2OH); m/z 1174.9→m/z 1012.8 for C24:0(2OH); and m/z 982.9→m/z 820.8 for the lactosyl ceramide internal standard. For quantitation, the area counts for each isoform were determined and then summed to obtain the total GL-3 area counts. The ratio of the total GL-3 area counts to that of the internal standard was determined and used to calculate the final concentration of GL-3 in each sample based on a linear least squares fit equation applied to an 11-point calibration curve prepared in DMSO. Total GL-3 measurements were normalized to the wet tissue weight of each sample.

The next data set has as its target T1, α-Gal A (Homo sapiens, UniProt P06280).
T1 construct: purchased JCR Pharmaceuticals Co. Ltd, (Japan) JR-051; host or cells: CHO cells
T1 sequence (P06280 32-429): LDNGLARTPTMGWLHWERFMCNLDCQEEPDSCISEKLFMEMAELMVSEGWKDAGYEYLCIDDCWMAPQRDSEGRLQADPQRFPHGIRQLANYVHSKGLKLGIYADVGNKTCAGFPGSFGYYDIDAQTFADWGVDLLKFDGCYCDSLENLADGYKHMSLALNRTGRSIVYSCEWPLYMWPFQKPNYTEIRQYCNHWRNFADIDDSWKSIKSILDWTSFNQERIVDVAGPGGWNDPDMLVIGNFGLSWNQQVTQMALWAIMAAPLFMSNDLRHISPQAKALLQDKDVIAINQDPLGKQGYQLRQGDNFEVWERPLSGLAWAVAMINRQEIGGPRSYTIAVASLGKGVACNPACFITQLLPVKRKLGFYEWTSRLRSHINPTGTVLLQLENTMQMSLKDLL
Put plainly: α-Gal A stability in whole blood ex vivo at 37° C. The class given is in vitro ADME. As to conditions: 5 nM and 50 nM α-Gal A formulated without DGJ. The method, then:
The effect of co-formulating α-Gal A with DGJ on α-Gal A stability in blood ex vivo was examined. Time-dependent loss of α-Gal A activity in whole blood at 37° C. was determined. 5 nM and 50 nM α-Gal A was formulated with or without 10 μM DGJ.

Data set [3] relates to R301Q fibroblast cells derived from Fabry patients. Put plainly: α-Gal A uptake and GL-3 reduction in R301Q Fabry patient fibroblasts. The class given is cell-based, human. As to conditions: 0.5 nM enzyme co-formulated with 0.1-100 μM DGJ vs alone. On the procedure: The effect of co-formulating α-Gal A with DGJ on α-Gal A uptake and GL-3 reduction in R301Q and C52S fibroblast cells derived from Fabry patients was determined. 0.5 nM α-Gal A was tested alone or co-formulated with 0.1, 1.0, 10 or 100 μM DGJ. […] The graph bars represent the average of compiled data from 4 separate experiments.
Further reduction after co-incubation with DGJ is also similar between the two enzymes (˜40-50% of baseline). The graph bars represent the average of compiled data from 4 separate experiments.

For “JR-051: recombinant human α-Gal A produced in CHO cells transformed with an expression vector encoding the human α-Gal A gene (JCR Pharmaceuticals)”, in data set [1], the AUC was determined as 17960 nmol/mL and the T1/2 was determined as 6.6 min. Also, the “effect on α-Gal A uptake in skin” value in data set [2] is on record as “no significant effect”. In the data set with GL-3 (α-Gal A 0.5 mg/kg), the “GL-3% reduction in heart” value came out at 72.1%, the “GL-3% reduction in kidney” value is 42.7% and the “GL-3% reduction in skin” value was found to be 85.7%. Also, in the data set with GL-3 (α-Gal A 1 mg/kg), the “GL-3% reduction in heart” value came out at 82.7%, the “GL-3% reduction in kidney” value is listed as 54.9% and the “GL-3% reduction in skin” value is reported as 90.7%. Besides, in the data set with GL-3 (α-Gal A 3 mg/kg), the “GL-3% reduction in heart” value is recorded as 93.7%, the “GL-3% reduction in kidney” value came out at 69.5% and the “GL-3% reduction in skin” value amounted to 97.4%. Moreover, the “half-life of α-Gal A in whole blood” value with α-Gal A lay in the range of 4 to 5 h. Besides, the “increase of enzyme uptake by DGJ” value in data set [3] is given as “up to 3 fold”.

B1: Fabrazyme: Agalsidase beta, produced by recombinant DNA technology in a Chinese hamster ovary (CHO) cell line; Genzyme Corporation (protein, UniProt P06280 32-429, looked up)
Alpha-galactosidase A: LDNGLARTPTMGWLHWERFMCNLDCQEEPDSCISEKLFMEMAELMVSEGWKDAGYEYLCIDDCWMAPQRDSEGRLQADPQRFPHGIRQLANYVHSKGLKLGIYADVGNKTCAGFPGSFGYYDIDAQTFADWGVDLLKFDGCYCDSLENLADGYKHMSLALNRTGRSIVYSCEWPLYMWPFQKPNYTEIRQYCNHWRNFADIDDSWKSIKSILDWTSFNQERIVDVAGPGGWNDPDMLVIGNFGLSWNQQVTQMALWAIMAAPLFMSNDLRHISPQAKALLQDKDVIAINQDPLGKQGYQLRQGDNFEVWERPLSGLAWAVAMINRQEIGGPRSYTIAVASLGKGVACNPACFITQLLPVKRKLGFYEWTSRLRSHINPTGTVLLQLENTMQMSLKDLL
With B1, the “increase of enzyme uptake by DGJ” value in data set [3] is “up to 4.6 fold”.
